Earlier results, collected in US20100086572A1, “RATIONAL PPI DOSAGE FORMS” (priority 2005, published 2010).
Where two headings read alike, the source gives them in different places.

Legend:
[1] = test system: experimentally induced colitis; settings: in vivo
[2] = 0.5 hours

Q: For `Cc1c(OCC(F)(F)F)ccnc1C[S+]([O-])c1nc2ccccc2[nH]1` (stereo not drawn) [lansoprazole], which “area under the plasma concentration curve (AUC)” value (“area” for short) (30 mg once a day) is on record?
A: 1934 ng·h/mL

Q: What about the “area” value (60 mg once a day) of the same compound?
A: 4743 ng·h/mL

Q: What about the “area” value (60 mg three times a day) of the same compound?
A: 14083 ng·h/mL

Q: What about the “area” value (60 mg twice a day) of the same compound?
A: 8508 ng·h/mL

Q: And the “formation of experimentally induced colitis” value [1]?
A: inhibits the formation of experimentally induced-induced colitis

Q: What about the “drug degrading in aqueous solution” value ([2]; pH 5, 37° C.) of the same compound?
A: About 49%

Q: And the “drug degrading in aqueous solution” value ([2]; pH 6, 37° C.)?
A: ~10%

Q: And the “drug degrading in aqueous solution” value ([2]; pH 7, 37° C.)?
A: ~2%

Q: And the “drug degrading in aqueous solution” value ([2]; pH 8, 37° C.)?
A: ~1%
